Data from US9073905B2, “Rock inhibitors” (Amakem NV, priority 2011, dated 2015).
“Also recorded” adds a separate entry of the source.

What was measured:
[1] = Stability towards drug metabolizing enzymes in lung S9; type: in vitro ADME, human; conditions: for half-life at 1 μM: human
Procedure: A 1 μM solution of the ROCK inhibitors is incubated with a reaction mixture containing lung S9 (from smokers) as well as the cofactors NADPH, UDPGA, PAPS and GSH. Samples are collected at 0, 15, 30 and 60 minutes post incubation. Negative control samples incubated with ROCK inhibitors and S9 fraction in the absence of cofactors are run in parallel. By using LC-MS/MS analysis, the percent of ROCK compounds remaining at each time point, the metabolic half-life of the ROCK compounds (expressed in minutes) and the metabolic half-life of the control compounds are determined.

[2] = Stability assay in human plasma; type: in vitro ADME; conditions: 1 μM compound, LC-MS/MS, read-out: t½ human plasma
Procedure: (§1) Compounds are incubated at a concentration of 1 μM in rat (mice or rabbit) or human plasma. Samples are taken at fixed time points and the remnant of compound is determined by LC-MS/MS after protein precipitation. Half life is expressed in minutes.

[3] = Stability in plasma, species not stated; type: in vitro ADME; conditions: for half-life at 1 μM: comparison table, plasma species not given, read-out: t½ Plasma; for half life in plasma (in words): point C.2.1
Procedure: as §1

ROCK2 = ROCK2 (Homo sapiens, UniProt O75116); assay: Kinase inhibition (ROCKI & ROCKII), radiometric 33P-ATP biochemical assay; conditions: for inhibitory activity against ROCK (in words): summary of point C1.1
ROCK2, sequence (O75116 whole entry, species assumed): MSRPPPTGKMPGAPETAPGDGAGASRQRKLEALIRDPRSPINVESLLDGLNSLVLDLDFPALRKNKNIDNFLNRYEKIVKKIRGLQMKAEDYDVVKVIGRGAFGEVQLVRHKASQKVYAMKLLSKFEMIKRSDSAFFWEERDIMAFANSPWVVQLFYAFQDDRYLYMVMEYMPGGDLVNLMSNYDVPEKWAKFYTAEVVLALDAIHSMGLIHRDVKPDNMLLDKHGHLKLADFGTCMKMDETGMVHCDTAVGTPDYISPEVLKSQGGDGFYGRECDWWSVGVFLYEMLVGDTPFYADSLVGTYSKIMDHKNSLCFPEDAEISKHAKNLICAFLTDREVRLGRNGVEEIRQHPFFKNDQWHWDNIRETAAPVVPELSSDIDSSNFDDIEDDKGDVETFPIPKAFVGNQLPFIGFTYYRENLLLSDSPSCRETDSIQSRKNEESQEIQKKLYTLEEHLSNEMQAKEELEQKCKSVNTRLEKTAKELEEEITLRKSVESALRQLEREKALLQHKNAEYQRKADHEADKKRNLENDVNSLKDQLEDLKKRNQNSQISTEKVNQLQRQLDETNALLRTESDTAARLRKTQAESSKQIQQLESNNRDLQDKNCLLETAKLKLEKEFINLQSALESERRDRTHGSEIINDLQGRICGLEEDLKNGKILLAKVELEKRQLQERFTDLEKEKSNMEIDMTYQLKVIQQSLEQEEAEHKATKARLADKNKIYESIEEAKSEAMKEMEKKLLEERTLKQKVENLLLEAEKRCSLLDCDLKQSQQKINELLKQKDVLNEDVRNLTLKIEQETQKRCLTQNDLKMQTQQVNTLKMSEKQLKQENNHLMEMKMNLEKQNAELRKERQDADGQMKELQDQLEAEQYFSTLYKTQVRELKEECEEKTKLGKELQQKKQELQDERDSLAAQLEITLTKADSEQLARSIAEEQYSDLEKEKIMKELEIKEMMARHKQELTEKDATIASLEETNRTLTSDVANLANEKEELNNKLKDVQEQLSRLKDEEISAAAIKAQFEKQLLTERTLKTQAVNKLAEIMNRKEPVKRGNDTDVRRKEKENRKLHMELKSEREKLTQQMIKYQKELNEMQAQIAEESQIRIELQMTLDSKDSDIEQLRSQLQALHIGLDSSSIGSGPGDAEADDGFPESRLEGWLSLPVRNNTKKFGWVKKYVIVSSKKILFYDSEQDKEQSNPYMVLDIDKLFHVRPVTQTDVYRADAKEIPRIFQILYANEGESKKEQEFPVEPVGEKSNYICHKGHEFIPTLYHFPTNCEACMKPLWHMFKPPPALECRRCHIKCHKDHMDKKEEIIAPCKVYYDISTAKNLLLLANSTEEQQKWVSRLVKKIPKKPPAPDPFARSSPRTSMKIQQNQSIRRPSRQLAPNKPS
Procedure: On-target activity against ROCK was measured in a biochemical assay, using the following reagents: Base Reaction buffer; 20 mM Hepes (pH 7.5), 10 mM MgCl2, 1 mM EGTA, 0.02% Brij35, 0.02 mg/ml BSA, 0.1 mM Na3VO4, 2 mM DTT, 1% DMSO. Required cofactors are added individually to each kinase reaction. The reaction procedure first involved the preparation of a peptide substrate in a freshly prepared reaction buffer. Required cofactors were then added to the substrate solution. ROCK (1 nM final concentration) was then delivered to the substrate solution. After gentle mix, DMSO solutions of the test compounds were added to the enzyme. Substrate mix ^33P-ATP (specific activity 0.01 μCi/μl final) was then delivered into the reaction mixture to initiate the reaction. The kinase reaction was incubated for 120 min. at room temperature. Reactions were then spotted onto P81 ion exchange paper (Whatman #3698-915). Filters were washed extensively in 0.1% Phosphoric acid. A radiometric count was then performed and IC50 values were subsequently determined.
The IC50 values obtained (in accordance with the protocol set forth above) are represented as follows: “+++” means IC50 below 0.1 μM, “++” means IC50 between 0.1 μM and 1 μM; “+” means IC50 between 1 and 10 μM and “ND” means “not determined yet”.

[4] = test system: MLC-T18/S19 phosphorylation; assay: Myosin light chain phosphorylation assay (ELISA) in A7r5 cells; type: cell-based, Rat; conditions: for functional activity in the MLC phosphorylation assay (in words): FIG. 1; for IC50 / EC50: Rattus norvegicus; for IC50: A7R5, comparison table, MLC phosphorylation, read-out: IC50 MLC-PP; for EC50: MLC-T18/S19 phosphorylation, A7r5 cells, serum-free medium
Procedure: Rat smooth muscle cell line A7r5 is used. The endogenous expression of ROCK esults in a constitutive phosphorylation of the regulatory myosin light chain at T18/S19. A7r5 cells were plated in DMEM supplemented with 10% FCS in multiwall cell culture plates. After serum starvation overnight, cells were incubated with compounds in serum-free medium.
Quantification of MLC-T18/S19 phosphorylation is assesses in 96 well-plates via ELISA using a phspho-MLC-T18/S19 specific antibody and a secondary detection antibody. Raw data were converted into percent substrate phosphorylation relative to high controls, which were set to 100%.
EC50 values were determined using GraphPad Prism 5.01 software using a nonlinear regression curve fit with variable hill slope.
The EC50 values obtained (in accordance with the protocols set forth above) are represented as follows: “+++” means EC50 below 0.3 μM, “++” means EC50 between 0.3 μM and 1 μM; “+” means EC50 between 1 and 10 μM and “−” means EC50>10 μM.

[5] = Stability assay in rabbit aqueous humor; type: in vitro ADME; conditions: for half-life at 1 μM: rabbit, aqueous humor, read-out: t½ AH
Procedure: Compounds are incubated at a concentration of 1 μM in rabbit aqueous humor (AH). Samples are taken at fixed time points and the remnant of compound is determined by LC-MS/MS after protein precipitation. Half life is expressed in minutes.

[6] = test system: normotensive New Zeland White rabbits; assay: Intraocular pressure (IOP) lowering in normotensive rabbits; type: in vivo, rabbit
Procedure: A detailed example of the IOP lowering effects of the compounds of the invention is here provided for compound 14. Compound 14 was here formulated as a 0.3% solution of pH=6.91 in Water/PEG 400 1:1.
IOP of to normotensive New Zeland White rabbits (n=3) was measured using a Tonolab tonometer, at 9h00, prior to compound administration.
At 9h30, one drop (50 μl) of the formulated solution was administered to rabbits, in the right eye (OD); while one drop (50 μl) of the vehicle solution was administered to the left eye (OS). IOP was then recorded in 1 h intervals until 17 h.

[7] = Stability assay in mice plasma; type: in vitro ADME; conditions: mouse, 1 μM compound, LC-MS/MS, read-out: t½ mice plasma
Procedure: as §1

[8] = ROCK 1 nM, 120 min at room temperature
[9] = 1 μM, lung S9 from smokers, cofactors NADPH, UDPGA, PAPS, GSH
[10] = lung S9 (from smokers), text summary of point C.2.2, read-out: half-life in lung tissue

SMILES | half-life at 1 μM [2] [min] | half-life at 1 μM [3] [min] | half life in plasma (in words) [3] | IC50 (ROCK2; [8]) [nM] | IC50 (ROCK2; comparison table) [nM] | inhibitory activity against ROCK (in words) (ROCK2) | functional activity in the MLC phosphorylation assay (in words) [4] | IC50 [4] [nM] | EC50 [4] [nM] | half-life at 1 μM ([5]; 1 μM in rabbit aqueous humor) [min] | half-life at 1 μM ([5]; comparison table) [min] | t½ human lung S9 [1, 9] [min] | t½ lung S9 ([1]; comparison table) [min] | half-life at 1 μM [1, 10] [min] | half-life at 1 μM [7] [min] | further results
O=C(OCC1CCCO1)c1cccc(CN2CCCC(Nc3ccc4[nH]ncc4c3)C2)c1 (centres unmarked) [Compound 14] | < 5 | < 5 | short half life | < 100 | 3.4 | strong inhibitory activity | functionally active compound; also recorded: display functional activity | 240 | < 300 | > 120 | > 120 | – | – | – | – | half-life at 1 μM ([1]; lung S9 (from smokers), comparison table, read-out: t½ lung S9): 9 min; half-life in aqueous humor compared with plasma (in words) ([5]; text summary of point C.2.3): significantly longer half-life in aqueous humor than in plasma; time after administration until which the IOP decrease is statistically significant (P≦0.05) ([6]; 0.3% solution, one drop at 9h30, until the 14 h time point): 4.30 h; IOP decrease following administration (in words) ([6]; 0.3% solution, one drop, visible until 17 h): pronounced IOP decrease; Average IOP OD (mmHg) ([6]; 9 h, right eye (OD), prior to compound administration (baseline), n=3): 9.89 mmHg; Average IOP OD (mmHg) ([6]; 10 h, one drop (50 μl) 0.3% solution in Water/PEG 400 1:1 at 9h30, right eye (OD)): 7.67 mmHg; Average IOP OD (mmHg) ([6]; 11 h, one drop (50 μl) 0.3% solution at 9h30, right eye (OD)): 6.44 mmHg; Average IOP OD (mmHg) ([6]; 12 h, one drop (50 μl) 0.3% solution at 9h30, right eye (OD)): 6.22 mmHg; Average IOP OD (mmHg) ([6]; 13 h, one drop (50 μl) 0.3% solution at 9h30, right eye (OD)): 7.00 mmHg; Average IOP OD (mmHg) ([6]; 14 h, one drop (50 μl) 0.3% solution at 9h30, right eye (OD)): 6.44 mmHg; Average IOP OD (mmHg) ([6]; 15 h, one drop (50 μl) 0.3% solution at 9h30, right eye (OD)): 7.67 mmHg; Average IOP OD (mmHg) ([6]; 16 h, one drop (50 μl) 0.3% solution at 9h30, right eye (OD)): 7.89 mmHg; Average IOP OD (mmHg) ([6]; 17 h, one drop (50 μl) 0.3% solution at 9h30, right eye (OD)): 8.11 mmHg
O=C(NCCSC1CCOC1=O)c1cccc(CN2CCCC(Nc3cccc4cnccc34)C2)c1 (centres unmarked) [Compound 26] | 5 | < 5 | short half life | < 100 | 1.9 | strong inhibitory activity | display functional activity | 400 | 300 to 1000 | – | – | >240 | >240 | > 240 | 2.5 | –
O=C(NCCSC1CCOC1=O)c1cccc(CN2CCCC(Nc3ccc4[nH]ncc4c3)C2)c1 (centres unmarked) [Compound 28] | < 5 | – | short half life | < 100 | – | strong inhibitory activity | display functional activity | – | 300 to 1000 | – | – | >240 | – | > 240 | 2.2 | –
COC(=O)c1cccc(NC(=O)c2cccc(CN3CCC(Nc4cccc5cnccc45)C3)c2)c1 (centres unmarked) [Compound 32] | 25 | 22 | – | < 100 | 25 | – | – | 160 | < 300 | > 120 | 98 | – | >240 | – | – | half-life at 1 μM ([1]; 1 μM, lung S9 from smokers, cofactors NADPH, UDPGA, PAPS, GSH, read-out: t½ human lung S9): > 240 min
